The results in this text go back to patent publication US11739098B2 (BRISTOL-MYERS SQUIBB COMPANY, priority 2017, dated 2023).

Each structure is given as a SMILES string. pIC50: −log10 of the molar value.

Holding throughout (format): cell-based
One assay deals with T1, human TLR8 (Homo sapiens, UniProt Q9NR97).
T1 construct: host or cells: HEK-Blue cells (HEK293-derived reporter line)
T1 sequence (Q9NR97 27-1041): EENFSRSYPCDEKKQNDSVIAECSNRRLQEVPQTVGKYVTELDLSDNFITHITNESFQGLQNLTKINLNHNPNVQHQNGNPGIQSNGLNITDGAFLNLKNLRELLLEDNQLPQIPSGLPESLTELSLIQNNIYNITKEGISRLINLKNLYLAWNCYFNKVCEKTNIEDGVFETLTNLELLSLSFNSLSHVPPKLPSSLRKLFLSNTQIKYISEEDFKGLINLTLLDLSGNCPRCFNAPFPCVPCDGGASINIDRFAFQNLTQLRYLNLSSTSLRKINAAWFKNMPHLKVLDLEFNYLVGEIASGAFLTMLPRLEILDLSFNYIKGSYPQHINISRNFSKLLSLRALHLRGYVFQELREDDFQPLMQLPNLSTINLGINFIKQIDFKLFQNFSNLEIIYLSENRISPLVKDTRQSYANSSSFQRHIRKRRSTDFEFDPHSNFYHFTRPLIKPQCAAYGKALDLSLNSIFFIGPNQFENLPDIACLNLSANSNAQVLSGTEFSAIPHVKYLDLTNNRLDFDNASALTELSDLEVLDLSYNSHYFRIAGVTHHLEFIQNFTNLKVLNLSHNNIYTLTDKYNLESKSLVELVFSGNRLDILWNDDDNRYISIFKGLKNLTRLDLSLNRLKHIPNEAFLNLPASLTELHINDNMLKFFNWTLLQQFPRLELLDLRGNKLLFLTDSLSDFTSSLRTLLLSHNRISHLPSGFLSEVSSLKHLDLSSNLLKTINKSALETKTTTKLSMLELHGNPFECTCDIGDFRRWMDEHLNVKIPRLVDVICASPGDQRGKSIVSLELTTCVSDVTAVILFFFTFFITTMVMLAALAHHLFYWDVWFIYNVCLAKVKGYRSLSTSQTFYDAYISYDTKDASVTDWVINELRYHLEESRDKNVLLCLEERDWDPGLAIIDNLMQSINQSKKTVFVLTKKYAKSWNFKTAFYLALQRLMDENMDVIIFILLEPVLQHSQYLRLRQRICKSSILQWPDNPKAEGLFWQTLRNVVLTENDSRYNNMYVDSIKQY
In words: TLR8 inhibition reporter assay (HEK-Blue cells, SEAP reporter, R848 stimulation). The conditions noted are these: HEK-Blue cells overexpressing human TLR8, SEAP reporter, R848 15.9 μM. The method, boiled down: (§1)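 Agonists (final): TLR7 gardiquimod 7.5 μM; TLR8 R848 15.9 μM; TLR9 ODN2006 5 nM. HEK-Blue reporter cells, 30 min RT compound pre-incubation, 0.05 nM–50 μM dose range, 22 h at 37 °C, colorimetric SEAP detection medium. % inhibition relative to agonist+DMSO and known-inhibitor wells.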
For orientation: In a reporter assay the amount or activity of a reporter protein is the signal.

For another assay, the target named is T2, human TLR7 (Homo sapiens, UniProt Q9NYK1).
T2 construct: host or cells: HEK-Blue cells (HEK293-derived reporter line)
T2 sequence (Q9NYK1 27-1049): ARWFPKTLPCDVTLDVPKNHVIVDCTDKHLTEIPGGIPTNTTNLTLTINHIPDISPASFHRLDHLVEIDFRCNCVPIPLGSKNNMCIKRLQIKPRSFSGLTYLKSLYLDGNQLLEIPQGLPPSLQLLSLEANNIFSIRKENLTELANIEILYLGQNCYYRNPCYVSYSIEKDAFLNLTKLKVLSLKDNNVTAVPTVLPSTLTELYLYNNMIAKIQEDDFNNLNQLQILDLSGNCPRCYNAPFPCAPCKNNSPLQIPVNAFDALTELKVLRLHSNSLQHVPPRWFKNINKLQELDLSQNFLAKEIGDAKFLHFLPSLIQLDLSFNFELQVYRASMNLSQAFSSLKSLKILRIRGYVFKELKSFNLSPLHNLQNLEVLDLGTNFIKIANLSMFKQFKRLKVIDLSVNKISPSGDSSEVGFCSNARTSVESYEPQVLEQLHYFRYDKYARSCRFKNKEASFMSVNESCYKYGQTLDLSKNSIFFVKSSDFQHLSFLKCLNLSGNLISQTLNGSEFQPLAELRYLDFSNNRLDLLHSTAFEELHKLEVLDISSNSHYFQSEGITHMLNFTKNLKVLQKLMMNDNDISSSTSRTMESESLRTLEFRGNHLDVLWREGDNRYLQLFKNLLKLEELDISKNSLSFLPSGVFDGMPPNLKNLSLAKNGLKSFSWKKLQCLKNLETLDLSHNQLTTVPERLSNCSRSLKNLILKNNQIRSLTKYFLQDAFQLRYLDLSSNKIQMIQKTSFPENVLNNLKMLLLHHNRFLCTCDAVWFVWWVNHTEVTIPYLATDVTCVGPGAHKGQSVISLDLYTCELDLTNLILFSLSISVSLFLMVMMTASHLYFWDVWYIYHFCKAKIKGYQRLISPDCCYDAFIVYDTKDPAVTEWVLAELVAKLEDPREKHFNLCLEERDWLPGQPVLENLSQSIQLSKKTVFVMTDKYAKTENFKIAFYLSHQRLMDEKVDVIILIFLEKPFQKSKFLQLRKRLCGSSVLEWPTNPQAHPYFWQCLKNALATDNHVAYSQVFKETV
Put plainly: TLR7 inhibition reporter assay (HEK-Blue cells, SEAP reporter, gardiquimod stimulation). The conditions noted are these: HEK-Blue cells overexpressing human TLR7, SEAP reporter, gardiquimod 7.5 μM. The method, boiled down: as §1

Another assay has as its target T3, human TLR9 (Homo sapiens, UniProt Q9NR96).
T3 construct: host or cells: HEK-Blue cells (HEK293-derived reporter line)
T3 sequence (Q9NR96 26-1032): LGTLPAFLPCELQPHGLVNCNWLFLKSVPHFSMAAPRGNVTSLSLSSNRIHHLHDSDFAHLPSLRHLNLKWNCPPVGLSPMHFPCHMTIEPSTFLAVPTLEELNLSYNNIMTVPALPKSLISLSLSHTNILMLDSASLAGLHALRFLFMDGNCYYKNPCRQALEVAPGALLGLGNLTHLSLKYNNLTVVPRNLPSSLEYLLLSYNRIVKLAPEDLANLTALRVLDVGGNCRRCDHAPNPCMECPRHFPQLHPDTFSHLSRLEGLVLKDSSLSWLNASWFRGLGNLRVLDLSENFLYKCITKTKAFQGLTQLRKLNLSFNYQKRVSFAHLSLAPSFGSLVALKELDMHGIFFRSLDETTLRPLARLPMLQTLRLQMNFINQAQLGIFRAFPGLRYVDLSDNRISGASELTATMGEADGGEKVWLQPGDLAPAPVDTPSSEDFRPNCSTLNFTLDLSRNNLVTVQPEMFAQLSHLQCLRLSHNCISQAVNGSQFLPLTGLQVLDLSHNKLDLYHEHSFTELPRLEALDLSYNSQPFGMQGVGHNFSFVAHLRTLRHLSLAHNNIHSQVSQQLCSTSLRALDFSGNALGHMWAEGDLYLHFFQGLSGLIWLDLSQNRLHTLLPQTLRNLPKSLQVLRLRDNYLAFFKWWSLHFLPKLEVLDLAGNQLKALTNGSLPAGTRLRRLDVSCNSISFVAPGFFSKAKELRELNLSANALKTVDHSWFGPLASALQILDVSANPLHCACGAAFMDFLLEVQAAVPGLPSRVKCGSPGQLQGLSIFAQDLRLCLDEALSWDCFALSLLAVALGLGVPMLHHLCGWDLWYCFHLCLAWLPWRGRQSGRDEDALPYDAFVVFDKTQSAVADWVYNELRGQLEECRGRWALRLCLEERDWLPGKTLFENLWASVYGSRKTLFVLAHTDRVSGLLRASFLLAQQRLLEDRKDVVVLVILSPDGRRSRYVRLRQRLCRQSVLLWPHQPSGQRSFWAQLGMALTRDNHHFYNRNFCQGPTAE
In words: TLR9 inhibition reporter assay (HEK-Blue cells, SEAP reporter, ODN2006 stimulation). The conditions noted are these: HEK-Blue cells overexpressing human TLR9, SEAP reporter, ODN2006 5 nM. An outline of the steps:
as §1

A word on the pIC50: it is −log10 of the IC50, conventionally taken in molar units. For the compound `CNC(=O)CN1CCC(c2ccc3[nH]c(-c4cn5nnnc5cc4C)c(C(C)C)c3c2)CC1` [Example 316, 2-(4-(3-isopropyl-2-(7-methyltetrazolo[1,5-a]pyridin-6-yl)-1H-indol-5-yl)piperidin-1-yl)-N-methylacetamide], the pIC50 was 6.00 to 7.00 at human TLR8, over 7.00 against human TLR7 and 4.30 to 6.00 against human TLR9.
On to `CNC(=O)CN1CCC(c2ccc3[nH]c(-c4cc(OC)n5nc(C)nc5c4)c(C(C)C)c3c2)CC1` [Example 347, 2-(4-(3-isopropyl-2-(5-methoxy-2-methyl-[1,2,4]triazolo[1,5-a]pyridin-7-yl)-1H-indol-5-yl)piperidin-1-yl)-N-methylacetamide], for which the pIC50 against human TLR8 is over 7.00; against human TLR7, over 7.00; against human TLR9, 4.30 to 6.00.
Consider `Cc1nc(CN2CCC(c3ccc4[nH]c(-c5ccnc6[nH]ncc56)c(C(C)C)c4c3)CC2)c2ccccn12` [Example 868, 4-(3-isopropyl-5-(1-((3-methylimidazo[1,5-a]pyridin-1-yl)methyl)piperidin-4-yl)-1H-indol-2-yl)-1H-pyrazolo[3,4-b]pyridine], for which the pIC50 against human TLR8 was over 7.00; on human TLR7, over 7.00; at human TLR9 it was 6.00 to 7.00.
In the case of `CNC(=O)CN1CCC(c2ccc3[nH]c(-c4ccc5ncc(C#N)n5c4)c(C(C)C)c3c2)CC1` [Example 390, 2-(4-(2-(3-cyanoimidazo[1,2-a]pyridin-6-yl)-3-isopropyl-1H-indol-5-yl)piperidin-1-yl)-N-methylacetamide], the results for the pIC50 against human TLR8, against human TLR7 and on human TLR9 were 6.00 to 7.00, 6.00 to 7.00 and under 4.30, respectively.
In the case of `Cc1cc(-c2[nH]c3ccc(C4CCNCC4)cc3c2C(C)C)cn2nnnc12` [Example 75, 6-(3-isopropyl-5-(piperidin-4-yl)-1H-indol-2-yl)-8-methyltetrazolo[1,5-a]pyridine], the results for the pIC50 on human TLR8, against human TLR7 and against human TLR9 were over 7.00, over 7.00 and 6.00 to 7.00, respectively.
As to `CC(C)c1c(-c2ccnc3[nH]ncc23)[nH]c2ccc(C3CCN(C4CCNCC4)CC3)cc12` [Example 832, 4-(5-([1,4′-bipiperidin]-4-yl)-3-isopropyl-1H-indol-2-yl)-1H-pyrazolo[3,4-b]pyridine], the pIC50 on human TLR8 is over 7.00; on human TLR7, over 7.00; on human TLR9, 6.00 to 7.00.
Take `Cc1cn2cc(-c3[nH]c4ccc(C5CCN(C(=O)CC(C)(C)O)CC5)cc4c3C(C)C)c(C)cc2n1` [Example 597, 1-(4-(2-(2,7-dimethylimidazo[1,2-a]pyridin-6-yl)-3-isopropyl-1H-indol-5-yl)piperidin-1-yl)-3-hydroxy-3-methylbutan-1-one]: the figures for the pIC50 against human TLR8, against human TLR7 and against human TLR9 were under 5.51, 6.00 to 7.00 and 4.30 to 6.00, respectively.
For the compound `CC(C)c1c(-c2ccnc3[nH]ncc23)[nH]c2ccc(C3CCNCC3)c(F)c12` [Example 259, 4-(4-fluoro-3-isopropyl-5-(piperidin-4-yl)-1H-indol-2-yl)-1H-pyrazolo[3,4-b]pyridine], the pIC50 on human TLR8 was over 7.00; at human TLR7, over 7.00; at human TLR9 it was 6.00 to 7.00.
In the case of `Cc1cc2cc(-c3[nH]c4ccc(C5CCN(C6COC6)CC5)cc4c3C(C)C)ccn2n1` [Example 726, 5-(3-isopropyl-5-(1-(oxetan-3-yl)piperidin-4-yl)-1H-indol-2-yl)-2-methylpyrazolo[1,5-a]pyridine], the pIC50 was under 5.51 against human TLR8, 6.00 to 7.00 against human TLR7 and under 4.30 against human TLR9.
As to `CCc1c(-c2ccnc3[nH]ncc23)[nH]c2ccc(C3CCN(Cc4cocn4)CC3)cc12` [Example 920, 4-((4-(3-ethyl-2-(1H-pyrazolo[3,4-b]pyridin-4-yl)-1H-indol-5-yl)piperidin-1-yl)methyl)oxazole], the negative-log IC50 (pIC50) against human TLR8 is over 7.00; against human TLR7, 6.00 to 7.00; on human TLR9, 4.30 to 6.00.
